Results taken from EP0209274A2, “Furanone derivatives” (ELI LILLY AND COMPANY, priority 1985, dated 1987).

Biological target: T1, 5-Lipoxygenase (Cavia porcellus, UniProt A0A286X958)
T1 construct: The PMNL suspension was disrupted by five ½-second pulse sonication; from tissue; host or cells: guinea pig peritoneal polymorphonuclear leukocytes (30,000 x g supernatant of the sonicate)
T1 sequence (A0A286X958 1-674): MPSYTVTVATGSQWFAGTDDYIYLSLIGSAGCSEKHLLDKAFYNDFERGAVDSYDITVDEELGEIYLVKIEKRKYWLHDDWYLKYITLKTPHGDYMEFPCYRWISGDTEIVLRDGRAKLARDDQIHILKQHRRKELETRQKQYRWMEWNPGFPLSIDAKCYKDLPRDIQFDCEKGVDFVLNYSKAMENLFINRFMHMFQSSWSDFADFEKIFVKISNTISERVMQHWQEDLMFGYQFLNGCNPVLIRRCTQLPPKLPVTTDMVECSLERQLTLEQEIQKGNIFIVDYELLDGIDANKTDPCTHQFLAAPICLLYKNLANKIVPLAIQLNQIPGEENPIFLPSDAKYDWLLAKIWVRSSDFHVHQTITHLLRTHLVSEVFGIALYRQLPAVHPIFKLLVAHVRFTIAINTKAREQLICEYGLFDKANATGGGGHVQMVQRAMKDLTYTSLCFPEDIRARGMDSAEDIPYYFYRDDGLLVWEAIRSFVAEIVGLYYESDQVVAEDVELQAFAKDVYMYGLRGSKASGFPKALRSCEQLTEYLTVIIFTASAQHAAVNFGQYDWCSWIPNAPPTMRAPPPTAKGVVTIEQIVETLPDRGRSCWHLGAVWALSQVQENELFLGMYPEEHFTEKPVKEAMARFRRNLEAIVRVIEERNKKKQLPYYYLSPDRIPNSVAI
Experiment: 5-Lipoxygenase (5-LPO) Assay
Assay type: biochemical, guinea pigs
Settings: inhibition of 5-HETE formation; supernatant of guinea pig PMNL sonicate; read-out: 5-LPO IC50 (µg/ml) (converted)
Method: Ten milliliters of a 2% casein solution were injected intraperitoneally to guinea pigs weighing 250-300 gm. After 16-18 hours, the guinea pigs were killed by suffocation in a carbon dioxide chamber. The peritoneal cavity was infused with 70 ml of saline and 40-50 ml of the fluid were recovered from the cavity. After centrifugation, cell pellets were washed twice in Hank's balanced salt solution (HBSS) without calcium ion.
The cells were then suspended in 5 ml of sodium phosphate buffer, pH 7.1 containing 1 mM EDTA, and 0.1% gelatin. About 20-30 x 10^7 cells were obtained from one guinea pig.
The PMNL suspension was disrupted by five ½-second pulse sonication at the setting of 3 in a Branson Sonifier, Model 350, equipped with a microtip. The sonicates were combined and centrifuged at 30,000 x g for 10 minutes. The supernatant was kept frozen at -70°C until use.
. Enzyme activity was determined by assaying for 5-HETE formatiun by first incubating 0.2 ml of the supernatant obtained from the PMNL sonicate with the test compound, 1 mM CaCl2, 2 mM ATP, and 1 mM GSH for 5 minutes at 37°C. The mixture is treated with 5 pM ^14C-arachidonic acid and incubated at 37°C an additional 10 minutes. The enzyme reaction was then stopped by the addition of 10 µl of 1M citric acid and 10 µl of an alcohol solution containing 20 mg/ml each of indomethacin and butylated hydroxyanisole (BHA). The reaction mixture was spotted (50 µl) on a silica gel plate (Baker TLC plate S1250-PA-19C) and subjected to TLC in a solvent system of ethyl acetate/2,2,4-tri- methylpentane/glacial acetic acid/H20 (90:50:20:100).
The radioactivity of the arachidonic acid and its metabolites (5-HETE and LTB4) was visualized from a developed x-ray film which had been exposed to the TLC plate 1-2 days. The amount of 5-HETE formed was quanti- tated by scraping the silica gel area corresponding to the spot on the x-ray film, and the radioactivity determined in a Isocap/300 liquid scintillation counter (Searle Analytic, Inc.).
The percent inhibition of the formation of 5-HETE was determined for each concentration of test compound tested as compared to a control experiment wherein no test compound was added. The concentration and percent inhibition values were plotted on semi log paper and the concentration in which formation of 5-HETE is inhibited by 50% (ICso) was determined by interpolation.

| IC50 [µM] | Structure (SMILES) |
| --- | --- |
| 1.24 | CCCCCCCC/C=C\CCCCCCC1=CC(=O)OC1O (stereo not shown) [Example 11, (Z)-4-(7-hexadecenyl)-5-hydroxy-2(5H)-furanone] |
| 24 | CC(C)=CCC/C(C)=C/CCC1=CC(=O)OC1O (stereo not shown) [Example 14, (E,E)-4-(4,8-dimethyl-3,7-nonadienyl)-5-hydroxy-2(5H)-furanone] |
| 28.4 | O=C1C=C(CCCCCOc2ccccc2Cc2ccccc2)C(O)O1 (stereo not shown) [Example 18, 5-Hydroxy-4-[5-(2-benzylphenoxy)pentyl]-2(5H)-furanone] |
| 2.17 to 16.3 | CC/C=C\C/C=C\C/C=C\C/C=C\C/C=C\C/C=C\CC1=CC(=O)OC1O (stereo not shown) [Example 9, (Z,Z,Z,Z,Z,Z)-4-(2,5,8,11,14,17-eicosa-hexaenyl)-5-hydroxy-2(5H)-furanone] |
| 4.48 | CC(C)=CCCC(C)=CCCC(=CCCC1=CC(=O)OC1O)CO (stereo not shown) [Example 19, 5-Hydroxy-4-[4-(hydroxymethyl)-8,12-dimethyl-3,7,11-tridecatrienyl]-2(5H)-furanone] |
| 0.435 to 1.16 | CCCCC/C=C\C/C=C\C/C=C\C/C=C\CCC1=CC(=O)OC1O (stereo not shown) [Example 3, (Z,Z,Z,Z)-5-hydroxy-4-(3,6,9,12-octa-decatetraenyl)-2(5H)-furanone] |
| 0.241 | CC(C)=CCCC(C)=CCCC(C=O)=CCCC1=CC(=O)OC1O (stereo not shown) [Example 15, 2-[3-(2,5-dihydro-2-hydroxy-5-oxo-3-furanyl)-propylidene]-6,10-dimethyl-5,9-undecadienal] |
| 25.1 | CC(C)=CCCC(C)=CCCC(C)=CCCC1=CC(=O)OC1O (stereo not shown) [Example 13, 5-Hydroxy-4-(4,8,12-trimethyl-3,7,11-tri-decatrienyl)-2(5H)-furanone] |
| 1.25 to 3.12 | CCCCC/C=C\C/C=C\CCCCCCC1=CC(=O)OC1O (stereo not shown) [Example 1, (Z,Z)-4-(7,10-hexadecadienyl)-5-hydroxy-2-(5H)-furanone] |
| 1.57 to 4.71 | CCCCC/C=C\C/C=C\C/C=C\CCCC1=CC(=O)OC1O (stereo not shown) [Example 5, (Z,Z,Z)-4-(4,7,10-hexadecatrienyl)-5-hydroxy-2(5H)-furanone] |
| ~3.1 | CCCCCCCC/C=C/CCCCCCC1=CC(=O)OC1O (stereo not shown) [Example 4, (E)-4-(7-hexadecenyl)-5-hydroxy-2(5H)-furanone] |
| 16.8 to 40.2 | O=C1C=C(CCCCOc2ccc3ccccc3c2)C(O)O1 (stereo not shown) [Example 12, 5-Hydroxy-4-[4-(2-naphthalenyloxy)butyl]-2(5H)-furanone] |
| 0.471 to 1.88 | CC/C=C\C/C=C\C/C=C\CCCCCCC1=CC(=O)OC1O (stereo not shown) [Example 2, (Z,Z,Z)-4-(7,10,13-hexadecatrienyl)-5-hydroxy-2(5H)-furanone] |
